# Where two headings read alike, the source gives them in different places.
# Tests used:
# [1] = In vivo PK studies in CD-1 mice; settings: for AUC: pro-hpAP 30 mg/kg IP; for Cmax / AUC(0-t): ip, 30 mg/kg; for AUC(0-t): read-out: AUC0-t
# Method: For pharmacokinetic analysis, both male (n = 2) and female (n = 2) CD1 mice were dosed with either BAP or pro-hpAP by intraperitoneal (IP) route or administration (100 mg/kg) and (30 mg/kg), respectively. Blood and tissue samples were collected at predetermined time points (0–6 h post-dose). Plasma was generated from blood by low-speed centrifugation (3,000 × g), and all samples were stored at −80°C until bioanalysis.
# Non-compartmental-analysis module in WinNonlin was used to assess blood pharmacokinetic parameters including max concentrations (Cmax), time to Cmax (Tmax), area under the curve (AUC), area extrapolated to infinity (AUC0–∞), and terminal half-life (t1/2). In addition, the tissue penetration index was measured as the ratio of AUCtissue to AUCplasma.
# To quantify BAP and pro-hpAP, methanol containing 0.5 µM losartan as an internal standard was added 5 µL/µL plasma or 5 µL/mg tissue in microcentrifuge tubes. Tissue was further homogenized using a Spex Geno/Grinder with stainless steel beads for 3 min at 1,500 RPM. Homogenates from untreated animals were spiked with the analytes from 100 to 0.01 nmol/g tissue by serial dilution to generate a standard curve. Plasma and tissue homogenates were then vortexed and centrifuged (16,000 × g for 5 min at 4°C) to precipitate proteins. Supernatants were transferred to a 96 well plate and 2 µL was injected on a Accela 1250 LC coupled to a Vantage triple quadrupole mass spectrometer (Thermo Fisher Scientific Inc., Waltham MA). Samples were separated on an Agilent EclipsePlus C18 RRHD (1.8 µm) 2.1 × 100 mm column with mobile phases consisting of water +0.1% formic acid (A), and acetonitrile + 0.1% formic acid (B). […] Samples were introduced to the source through heated ion spray with the capillary temperature setting at 350°C, spray voltage of 4 kV and S-Lens RF of 51. Nitrogen was used as the sheath and auxiliary gas with the settings of 50 and 1 arbitrary units, respectively. For BAP, the instrument was operated in negative ion mode scanning for transitions of 179.1 > 63.1, 79.1 (BAP) and 420.9 > 179.1, 127.0 (losartan) which were acquired with collision energies setting of 17; 55 and 25; 41 CE, respectively. For pro-hpAP, the instrument was operated in positive ion mode scanning for transitions of 346.2 to 86.1 and 143.2 (pro-hpAP) and 422.9 to 207.1 and 180.1 (losartan) which were acquired with collision energies setting of 29; 17 and 37; 22 CE, respectively. Peaks were quantified with Xcalibur software.
# UPEC strain CFT073 = assay: In vivo ascending UTI assay (prophylaxis); set-up: species or system Escherichia coli in C3H/HeN mice; settings: gentamicin 10 mg/kg IP 30 min prior to inoculation
# Method: Female mice were injected subcutaneously in the flank with 2.5 mg of MPA (150 mg/mL, diluted in sterile saline) 7 days prior to inoculation ([60]). Mice were dosed vaginally with 30 µL of sterile saline lavage fluid immediately prior to inoculation. The fluid was collected, placed on a slide, heat fixed, Gram stained, and assessed to determine the estrous cycle stage of each mouse as previously described ([61]).
# Six-week-old female C3H/HeN mice were inoculated with UPEC as previously described ([28]). Briefly, UPEC strain CFT073 (ATCC designation: BAA-2503) was streaked on LB agar from a frozen glycerol stock and grown overnight at 37°C. Following overnight incubation, three to five colonies were picked and subcultured into 10 mL of sterile LB, and the culture was incubated statically overnight at 37°C. The culture was diluted 1:1,000 (25 µL of culture into 25 mL of sterile LB) and incubated statically for 24 h at 37°C to promote the growth of bacteria with type-1 pili expression. The resulting 25 mL inoculum was centrifuged at 4,200 × g for 20 min at 4°C. The supernatant was removed, and the cell pellet was resuspended in 10 mL of sterile PBS. The OD600 was adjusted to 1.0 by the addition of PBS to give a cell density of approximately 4 × 10^7 to 1 × 10^8 CFUs per 50 µL, the volume of the inoculum. Cell counts were validated by plating a dilution of the inoculum solution and enumerating following overnight incubation.
# Urinary catheters were assembled by threading 30G needles with 0.28 mm inner diameter polyethylene tubing to create a soft tip. Catheter tips were dipped in lubricant immediately before inoculation. During catheterization, urine was aspirated from the bladder prior to inoculation with 50 µL of UPEC inoculum, prepared as described above. Mice were housed with their drug-dosed cohort and dosed intraperitoneally according to each experiment’s dosing regimen as shown in the figures. Dosing regimen for BAP trial 1 (Fig. 7b)consisted of IP administration of BAP (300 mg/kg) 30 min before inoculation; dosing regimen for BAP trial 2 (Fig. 7c) consisted of IP administration of BAP (600 mg/kg) 30 min before inoculation followed with IP doses of BAP (300 mg/kg) at 1 and 3 hpi; dosing regimen for BAP trial 3 and the pro-hpAP trial (Fig. 7d) consisted of IP administration of BAP (600 mg/kg) or pro-hpAP (60 mg/kg) 30 min before inoculation followed with IP doses of BAP (300 mg/kg) or pro-hpAP (30 mg/kg) at 1, 3, and 24 hpi; dosing regimen 4 (Fig. S3) consisted of IP administration of BAP (600 mg/kg) 30 min before inoculation followed with IP doses of BAP (300 mg/kg) at 1, 3, 6, 10, 22, 26, and 30 hpi. Gentamicin diluted in sterile PBS was used as a positive control and was administered to mice at 10 mg/kg IP 30 min prior to inoculation in all experiments.
# After 48 h, mice were anesthetized by isoflurane inhalation and sacrificed by cervical dislocation. Bladders were harvested, added to 1 mL sterile PBS, and homogenized with a hand-held homogenizer in a biosafety cabinet. Tissue homogenates were serially-diluted (five 10-fold dilutions), and 100 µL of each dilution was plated onto LB plates and enumerated after a 24 h incubation at 37°C, yielding an effective detection range of 1 × 10^2–150 × 10^8 CFU/mL. In a few cases, bacterial counts fell below the lower limit of detection or above the upper limit of detection and are reported as 0 CFU/mL or conservatively 200 × 10^8 CFU/mL, respectively.
# [2] = both sexes, CD1, mouse, in vivo, Bladder, single 30 mg/kg IP dose of pro-hpAP, analyte = labelled substance
# [3] = both sexes, CD1, mouse, in vivo, Brain, single 30 mg/kg IP dose of pro-hpAP, analyte = labelled substance
# [4] = both sexes, CD1, mouse, in vivo, Kidney, single 30 mg/kg IP dose of pro-hpAP, analyte = labelled substance
Structure (SMILES),"AUC ([1]; bladder, analyte = labelled substance (pro-hpAP or released hpAP))","Cmax [1, 2]","AUC(0-t) [1, 2]","Cmax [1, 3]","AUC(0-t) [1, 3]","Cmax [1, 4]","AUC(0-t) [1, 4]","Cmax ([1]; both sexes, CD1, mouse, in vivo, Plasma, single 30 mg/kg IP dose of pro-hpAP, analyte = labelled substance (pro-hpAP or released hpAP))","AUC(0-t) ([1]; both sexes, CD1, mouse, in vivo, Plasma, single 30 mg/kg IP dose of pro-hpAP, analyte = labelled substance)","Tmax ([1]; both sexes, CD1, mouse, in vivo, Kidney, single 30 mg/kg IP dose of pro-hpAP, analyte = labelled substance, read-out: Tmax)","AUC ([1]; both sexes, CD1, mouse, in vivo, plasma, analyte = labelled substance, read-out: AUC)","AUC ([1]; brain, analyte = labelled substance)","AUC ([1]; kidney, analyte = labelled substance)",mice with bacterial burden below the limit of detection (LOD) (UPEC strain CFT073)
"C#CCCOP(=O)(O)C(C)=O [hpAP, homopropargyl acetylphosphonate]",366 ± 31 nmol·h/g,586 ± 78 µM,366 ± 31 µM·h,2.18 ± 0.16 µM,1.87 ± 0.21 µM·h,50.2 ± 7.7 µM,16.3 ± 1.4 µM·h,110 ± 11 µM,38.8 ± 2.7 µM·h,15 min,38.8 ± 2.7 µM·h,1.87 ± 0.21 nmol·h/g,16.3 ± 1.4 nmol·h/g,
"CNC(C)C1CCC(N)C(OC2C(N)CC(N)C(OC3OCC(C)(O)C(NC)C3O)C2O)O1 (centres unmarked) [gentamicin, reference compound]",,,,,,,,,,,,,,5 of 8
